The text below walks through data of patent US20250034168A1, “NITROGEN-CONTAINING HETEROCYCLIC DERIVATIVE PARP INHIBITOR AND USE THEREOF” (XIZANG HAISCO PHARMACEUTICAL CO., LTD., priority 2021, published 2025).

Series [1] relates to MDA-MB-436 subcutaneous transplanted tumor. In words: Mouse MDA-MB-436 subcutaneous in vivo transplanted tumor model. Also on record: species or system BALB/c nude mice. On the procedure: Human breast cancer MDA-MB-436 cells were placed in Leibovitz's L-15 medium (supplemented with 10 μg/mL insulin, 16 μg/mL glutathione, 10% fetal bovine serum and 1% double antibody) and cultured at 37° C. Conventional digestion treatment with trypsin was carried out twice a week for passage. When the cell saturation was 80%-90%, and the number reached the requirement, the cells were collected, counted, and inoculated. BALB/c nude mice (from Beijing Vital River Laboratory Animal Technology Co., Ltd.) were subcutaneously inoculated with 0.2 mL (10×10^6) of MDA-MB-436 cells (plus matrigel, with the volume ratio of 1:1) on the right back. When the average tumor volume reached about 180 mm^3, grouping and administration were performed (marked as Day 0). The solvent group was given 5% DMSO, 30% PEG400 and 65% of 20% sulfobutyl-β-cyclodextrin solution, and the administration group was given compound 14 (Day 0-Day 10:1 mg/kg; Day 11-Day 28:0.1 mg/kg). The administration frequency was once a day, the administration cycle was 29 days, and the drug withdrawal observation period was set to 14 days. After grouping, the tumor diameter was measured twice a week with a vernier caliper. The formula for calculating the tumor volume was: V=0.5×a×b^2, where a and b represented the long and short diameters of the tumor, respectively. The tumor inhibitory effect of compound 14 was evaluated by TGI (%)=[(1−(average tumor volume at the end of administration in the treatment group−average tumor volume at the beginning of administration in the treatment group))/(average tumor volume at the end of treatment in the solvent control group−average tumor volume at the beginning of treatment in the solvent control group)]×100%. The tumor growth curve and the animal body weight change curve were as shown in FIG. 1 and FIG. 2, respectively.

A further series deals with PARP2 (Homo sapiens (Human), UniProt Q9UGN5). In words: PARP2 enzyme activity test. The series is classed as biochemical. On the procedure:
(§1) PARP2 and PARP7 chemical […] detection kits were both purchased from BPS Bioscience. The histone solution in the kit was diluted 5× with 1×PBS, and 25 μL of the diluted histone solution was added to a microwell plate and incubated overnight at 4° C. After the incubation, the plate was washed three times with PBST (0.05% Tween-20). 100 μL of the blocking solution was added to the microwell plate and incubated at 25° C. for 90 minutes. After the incubation, the plate was washed three times with PBST. 2.5 μL of compound 4 diluted in test buffer and 5 μL of substrate mixed solution were added to the microwell plate. 5 μL of the diluted PARP enzyme was added to the microwell plate, and the reaction system was incubated at 25° C. for 60 minutes.
(§2) After the incubation, the plate was washed three times with PBST. Streptavidin-HRP was diluted 50× with a blocking solution, and 25 μL of the diluent was added to the microwell plate and incubated at 25° C. for 30 minutes. After the incubation, the plate was washed three times with PBST. ELISA ECL substrate A and substrate B were mixed at a ratio of 1:1 (v/v), 25 μL of the mixture was added to the microwell plate, and the chemiluminescence value was read. […]

For a further series, the system named is MDA-MB-231 cells. In words: MDA-MB-231 cell proliferation inhibition test. The series is classed as cell-based. The following applies: Homo sapiens. On the procedure: Human breast cancer MDA-MB-231 cells purchased from ATCC were placed in complete DMEM medium (supplemented with 10% fetal bovine serum and 1% double antibody) and cultured at 37° C. and 5% CO2. The cells in the exponential growth phase were collected, and the cell suspension was adjusted to 1500 cells/135 μL with the culture medium. 135 μL of the cell suspension was added to each well of a 96-well cell culture plate and incubated overnight. On day 2, compounds at different concentrations were added, and the plate was placed in the incubator and incubated for 7 days. After the incubation was completed, according to operation instructions for a CellTiter-Glo kit (Promega, Cat #G7573), 75 μL of CTG solution, which was already pre-melted and equilibrated to room temperature, was added to each well, and the mixture was uniformly mixed for 2 min using a microplate shaker. The plate was placed at room temperature for 10 min, and then […] signal values were measured using an Envision 2104 plate reader (PerkinElmer). The cell proliferation inhibition rate was calculated according to the formula [(1−(RLUcompound−RLUblank)/(RLUcontrol−RLUblank))×100%]. The IC50 value was obtained by four-parameter nonlinear fitting using GraphPad Prism software.

The test system of the next series is MDA-MB-436 cells. As to the kind of experiment: MDA-MB-436 cell activity test. The following applies: Homo sapiens. The series is classed as cell-based. The method, then: Breast tumor cells MDA-MB-436 were purchased from ATCC, the culture medium was Leibovitz's L-15+10% FBS, and the cells were cultured in a CO2-free incubator at 37° C. On day 1, the cells in the exponential growth phase were collected, and the cell suspension was adjusted to 4000 cells/135 μL with the culture medium. 135 μL of the cell suspension was added to each well of a 96-well cell culture plate and incubated overnight. On day 2, compounds at different concentrations were added, and the plate was placed in the incubator and incubated for 7 days. After the incubation was completed, according to operation instructions for a CellTiter-Glo kit (Promega, G7573), 75 μL of CTG solution, which was already pre-melted and equilibrated to room temperature, was added to each well, and the mixture was uniformly mixed for 2 min using a microplate shaker. The plate was placed at room temperature for 10 min, and then […] were measured using an Envision2104 plate reader (PerkinElmer). The inhibition rate was calculated using formula (1), where RLUcompound was the readout of the drug treated group, RLUcontrol was the average value of the vehicle control group, and RLUblank was the average value of the cell-free well. The IC50 value was calculated using GraphPad Prism software.

The target in a further series is PARP7 (Homo sapiens (Human), UniProt Q7Z3E1). As to the kind of experiment: PARP7 enzyme activity test. The series is classed as biochemical. The method, then:
as §1, §2

Sequence of PARP2 (Q9UGN5 whole entry): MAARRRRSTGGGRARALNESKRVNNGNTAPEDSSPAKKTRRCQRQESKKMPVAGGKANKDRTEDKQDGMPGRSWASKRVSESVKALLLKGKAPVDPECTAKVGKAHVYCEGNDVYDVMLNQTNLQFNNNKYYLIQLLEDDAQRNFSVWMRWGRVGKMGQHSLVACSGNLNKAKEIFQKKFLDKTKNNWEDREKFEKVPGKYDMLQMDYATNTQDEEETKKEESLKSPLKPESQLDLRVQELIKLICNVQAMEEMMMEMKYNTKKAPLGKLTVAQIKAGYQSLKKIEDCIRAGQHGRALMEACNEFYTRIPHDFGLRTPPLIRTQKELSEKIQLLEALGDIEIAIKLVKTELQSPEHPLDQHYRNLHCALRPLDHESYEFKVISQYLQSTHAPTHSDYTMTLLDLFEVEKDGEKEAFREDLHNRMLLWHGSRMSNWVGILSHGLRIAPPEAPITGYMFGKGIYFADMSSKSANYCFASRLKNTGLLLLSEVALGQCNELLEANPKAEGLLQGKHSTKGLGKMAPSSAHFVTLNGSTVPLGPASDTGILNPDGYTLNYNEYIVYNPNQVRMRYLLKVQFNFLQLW
Sequence of PARP7 (Q7Z3E1 whole entry): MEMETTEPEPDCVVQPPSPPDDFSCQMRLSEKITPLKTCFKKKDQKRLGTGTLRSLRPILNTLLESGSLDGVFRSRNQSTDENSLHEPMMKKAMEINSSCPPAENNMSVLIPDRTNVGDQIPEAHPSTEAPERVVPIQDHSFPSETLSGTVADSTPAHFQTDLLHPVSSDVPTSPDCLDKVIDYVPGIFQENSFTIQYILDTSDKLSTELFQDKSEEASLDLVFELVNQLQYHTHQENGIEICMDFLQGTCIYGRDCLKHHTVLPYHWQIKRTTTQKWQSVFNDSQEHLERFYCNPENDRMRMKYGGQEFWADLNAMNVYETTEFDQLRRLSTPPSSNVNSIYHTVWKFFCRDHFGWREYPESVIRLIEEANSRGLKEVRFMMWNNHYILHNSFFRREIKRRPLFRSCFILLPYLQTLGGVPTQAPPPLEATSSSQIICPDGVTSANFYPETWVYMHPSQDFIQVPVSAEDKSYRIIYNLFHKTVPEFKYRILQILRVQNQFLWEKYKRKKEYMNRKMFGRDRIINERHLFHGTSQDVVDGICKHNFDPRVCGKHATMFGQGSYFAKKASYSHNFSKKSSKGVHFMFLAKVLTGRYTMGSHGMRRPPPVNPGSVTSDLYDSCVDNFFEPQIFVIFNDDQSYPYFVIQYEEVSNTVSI

As for `CCc1cc2ncc(CN3CC=C(c4ccc(C(=O)NC)nc4)CC3)cc2[nH]c1=O` [Compound 14, 1′-((7-ethyl-6-oxo-5,6-dihydro-1,5-naphthyridin-3-yl)methyl)-N-methyl-1′,2′,3′,6′-tetrahydro-[3,4′-bipyridine]-6-carboxamide], the “body weight of the animals” value in series [1] (Day 0-Day 10: 1 mg/kg, Day 11-Day 28: 0.1 mg/kg, once a day) is reported as “no significant decrease”. Moreover, the TGI in series [1] (after 28 days of administration, Day 0-Day 10: 1 mg/kg, Day 11-Day 28: 0.1 mg/kg, once a day) stood at 121%. The “tumor growth after drug withdrawal” value in series [1] (drug withdrawal observation period 14 days) was “did not grow again”. Further, the concentration for half-maximal inhibition (IC50) worked out at 31 nM on PARP2; 21800 nM with MDA-MB-231 cells (MDA-MB-231, 168 h, BRCA WT cells, 7 days incubation, CellTiter-Glo, read-out: MDA-MB-231 cell inhibitory activity IC50); 3.2 nM in the series with MDA-MB-436 cells (MDA-MB-436, 168 h, 7 days incubation, CellTiter-Glo); 40 nM at PARP7. The inhibition at 10 µM is 59.2% with MDA-MB-231 cells (MDA-MB-231 cells, 10 μM, read-out: Max inh. % 10 μM) and 89.1% in the series on MDA-MB-436 cells (MDA-MB-436 cells, 10 μM, read-out: Max inh. % 10 μM).

A word on the IC50: it is the concentration that gives 50% inhibition.
